Tests used:
[1] = Liver microsomal stability, human; type: in vitro ADME; settings: human liver microsomes; read-out: LM stability Human t ½
Description: (§1) As described herein, continued lead optimization afforded potent quinolones.

[2] = Liver microsomal stability, mouse; type: in vitro ADME; settings: mouse liver microsomes; read-out: LM stability Mouse t ½
Description: as §1

p62/SQSTM1 in HD-MSNs = assay: p62 immunoblot in HD-MSNs; type: cell-based, human; settings: 0.5 μM, PID26, vs DMSO
Experimental: (§2) FIG. 1A-FIG. 1E is an exemplary embodiment showing autophagy activator rescues HD-MSNs from degeneration in accordance with the present disclosure. FIG. 1A depicts the chemical structure of Ex 3. FIG. 1B includes a representative immunoblot (left) for steady state levels of α1-antitrypsin Z variant (ATZ) and β-actin in the HTO/Z cell line model of α1-antitrypsin deficiency after 24 hr treatment with DMSO alone or Ex 3 in DMSO at 0.5 and 2.5 μM and a bar graph showing the normalized intensity (right) calculated from immunoblot images for 0.5 μM versus DMSO control (Individual data plotted, n=4 biological replicates; *p=0.003 by t-test; mean+/−s.e.m). FIG. 1C includes an immunoblot for p62 and GAPDH in HD-MSNs treated with DMSO or 0.5 μM Ex 3 at PID26 (left) and a bar graph showing intensity values were normalized by GAPDH intensities and the relative fold change over DMSO condition was calculated from immunoblot images of three independent HD-MSN lines (right). Each dot represents reprogrammed MSNs from three independent HD-MSN lines. […] FIG. 1E includes example photographs (top) of HD-MSNs treated with DMSO or 0.5 μM Ex 3 (PID 30) expressing the tandem monomeric RFP-GFP-LC3 reporter and a bar graph (bottom) showing quantification of autophagosome (i.e., RFP+, GFP+ puncta) and autolysosome (i.e., RFP+, GFP− puncta) compartments from three independent HD-MSNs. […]

[3] = tested on: mHTT inclusion bodies in HD-MSNs; assay: HTT inclusion bodies in HD-MSNs; type: cell-based, human; settings: 0.5 μM, PID30, vs DMSO
Experimental: as §2

HD-MSNs [4] = assay: HD-MSN death (SYTOX assay); survival of striatal neurons; type: cell-based, human; settings: treated from PID14 every four days for 16 days
Experimental: as §2

HD-MSNs [5] = assay: Caspase 3/7 activation and Annexin V signal in HD-MSNs; type: cell-based, human; settings: HD-MSNs at PID30; 0.125, 0.25 or 0.5 uM
Experimental: as §2

HD-MSNs [6] = assay: Autophagic vacuoles by CYTO-ID green in HD-MSNs; type: cell-based, human; settings: 0.5 μM, PID26, vs DMSO
Experimental: as §2

[7] = tested on: HD-MSNs expressing the RFP-GFP-LC3 reporter; assay: Tandem RFP-GFP-LC3 reporter in HD-MSNs; type: cell-based, human; settings: 0.5 μM, PID30, vs DMSO
Experimental: as §2

Structure (SMILES)	half-life [1]	half-life [2]	p62/SQSTM1 protein levels (p62/SQSTM1 in HD-MSNs)	number of mHTT inclusion bodies [3]	HD-MSN death (SYTOX-positive cells) (HD-MSNs [4])	Annexin V signal (HD-MSNs [5])	activated Caspase 3/7 signal (HD-MSNs [5])	number of autophagic vacuoles (CYTO-ID signals) (HD-MSNs [6])	average number of autophagosomes and autolysosomes [7]
O=c1ccc2c(C(F)(F)F)c(-c3ccc(Cl)cn3)ccc2[nH]1 [Ex 97, 6-(5-chloropyridin-2-yl)-5-(trifluoromethyl) quinolin-2 (1H)-one]	> 2.42 h	> 2.42 h	–	–	–	–	–	–	–
O=c1ccc2c(Cl)cc(Cl)cc2[nH]1 [Ex 3, 5,7-dichloro-1H-quinolin-2-one]	–	0.07 h	decreased p62/SQSTM1 protein levels	reduced the number of mHTT inclusion bodies	significant reduction in HD-MSN death in a dose-dependent manner	significant reduction	significant reduction	increased the number of autophagic vacuoles	increased the average number of autophagosomes and autolysosomes

Source: patent publication US20250144110A1, “COMPOSITIONS OF AUTOPHAGY MODULATING AGENTS AND USES THEREOF” (Washington University, priority 2022, published 2025)
